{"source": "patent US20010053349A1", "about": "“Artificial nail sanitizing solution” (priority 2000, published 2001)", "origin": "cited, not measured here", "test_system": "nail fungus", "conditions": "oral compounds; average; treatment of documented nail fungus", "data": [{"molecule": "CN(C/C=C/C#CC(C)(C)C)Cc1cccc2ccccc12", "note": "[terbinafine]", "values": [{"measurement": "Clinical and mycological cure rates", "value": 70, "unit": "%"}]}]}
